From ChEMBL document CHEMBL5214920, “Emerging impact of triazoles as anti-tubercular agent” (Eur J Med Chem, 2022) come the findings set out here.

For assay [1], the system named is Mycobacterium tuberculosis. The experiment in a line: Antitubercular activity against multi-drug-resistant Mycobacterium tuberculosis assessed as bacterial growth inhibition measured after 7 days by direct susceptibility assay. It is filed as functional. To be noted: 168 h, time 7 day.
Assay [2] has as its system Mycobacterium tuberculosis. The experiment in a line: Potency index, ratio of isoniazid MIC to test compound MIC for antitubercular activity against multi-drug-resistant Mycobacterium tuberculosis. It is filed as functional.

Values after ≈ are worked out from the molar mass of the structure shown.

By MIC is commonly meant the lowest concentration found to suppress growth.

On to `COc1c(N2CCNCC2)c(F)cc2c(=O)c(C(=O)O)cn(C3CC3)c12`, for which, in assay [1], the MIC is 2 µg/mL (≈ 5.53 µM).

Regarding `O=C(O)c1cn(C2CC2)c2cc(N3CCN(Cc4cn(CCN5C(=O)Cc6ccccc65)nn4)CC3)c(F)cc2c1=O`, the MIC in assay [1] was determined as 0.25 µg/mL (≈ 0.437 µM). In the case of `CO/N=C1/C(=O)C(CCOCCOCCOCCn2cc(CN3C(=O)/C(=N/OC)c4cc(F)ccc43)nn2)c2ccccc21` (configuration not stated), the Ratio in assay [2] is 8. For the same molecule, in assay [1], the MIC came to 64 µg/mL (≈ 105 µM). Turning to `O=C(O)c1cn(C2CC2)c2cc(N3CCNCC3)c(F)cc2c1=O` [CIPROFLOXACIN], the MIC in assay [1] was 4 µg/mL (≈ 12.1 µM). Still for that read-out and setting: with `NNC(=O)c1ccncc1` [ISONIAZID] the figure was 512 µg/mL (≈ 3730 µM); with `CO[C@H]1/C=C/O[C@@]2(C)Oc3c(C)c(O)c4c(O)c(c(/C=N/N5CCN(C)CC5)c(O)c4c3C2=O)NC(=O)/C(C)=C\C=C\[C@H](C)[C@H](O)[C@@H](C)[C@@H](O)[C@@H](C)[C@H](OC(C)=O)[C@@H]1C` [RIFAMPIN], 64 µg/mL (≈ 77.8 µM).
